ChEMBL document CHEMBL5346930, “Discovery of novel N-benzylarylamide-dithiocarbamate based derivatives as dual inhibitors of tubulin polymerization and LSD1 that inhibit gastric cancers” (Eur J Med Chem, 2023)
Active and inactive are the calls of the source. The calls are words filed in the database; no cut-off is given here.

Legend:
DU-145 = assay: Antiproliferative activity against human DU-145 cells assessed as inhibition of cell growth incubated for 48 hrs by MTT assay; assay type: functional, cell-based; conditions: DU-145, 48 h
SMMC-7721 = assay: Antiproliferative activity against human SMMC-7721 cells assessed as inhibition of cell growth incubated for 48 hrs by MTT assay; assay type: functional, cell-based; conditions: SMMC-7721, 48 h
Tubulin (Homo sapiens) = Tubulin (Homo sapiens) (UniProt P68371+Q9H4B7+P0DPH7+P68366+Q13509+Q71U36+P04350+Q3ZCM7+P07437+P68363+Q9BQE3+Q6PEY2+Q13885+Q9BVA1+Q9BUF5); assay: Inhibition of tubulin polymerization in human MGC-803 cells assessed as destruction of microtubule network incubated for 48 hrs by immunofluorescence staining based fluorescence microscopic analysis; assay type: cell-based; conditions: dose 0-24 nmol/L
[1] = target: T1, Lysine-specific histone demethylase 1A (Homo sapiens, UniProt O60341); assay: Inhibition of recombinant LSD1 (unknown origin) using H3K4me2 peptide as substrate preincubated for 10 mins followed by substrate addition and measured after 30 mins by amplex red based fluorescence microplate reader analysis
[2] = target: T1, Lysine-specific histone demethylase 1A; assay: Inhibition of LSD1 in human SGC-7901 cells assessed as increase in H3K4me1 expression level at 0 to 30 nmol/L incubated for 48 hrs by Western blot analysis; assay type: cell-based; conditions: dose 0-30 nmol/L
SGC-7901 [3] = assay: Induction of cell cycle arrest in human SGC-7901 cells assessed as accumulation of cells at G2/M phase at 30 nmol/L incubated for 48 hrs (reference value: 32%); assay type: functional
MGC-803 [4] = assay: Induction of cell cycle arrest in human MGC-803 cells assessed as downregulation of CDC2 protein expression incubated for 48 hrs by Western blot analysis; assay type: functional, cell-based; conditions: dose 0-24 nmol/L
SGC-7901 [5] = assay: Induction of cell cycle arrest in human SGC-7901 cells assessed as reduction in CDC2 phosphorylation at Thr161 residue at 0 to 30 nmol/L incubated for 48 hrs by Western blot analysis; assay type: functional, cell-based; conditions: dose 0-30 nmol/L
MGC-803 [6] = assay: Induction of cell cycle arrest in human MGC-803 cells assessed as increase in p-Histone H3 protein expression incubated for 48 hrs by Western blot analysis; assay type: functional, cell-based; conditions: dose 0-24 nmol/L
SGC-7901 [7] = assay: Induction of morphological changes in human SGC-7901 cells assessed as increase in proportion of dead cells at 0 to 30 nmol/L incubated for 48 hrs by calcein-AM/PI staining based analysis; assay type: functional, cell-based; conditions: dose 0-30 nmol/L
MGC-803 [8] = assay: Induction of apoptosis in human MGC-803 cells assessed as increase in total apoptotic cells incubated for 48 hrs by Annexin-FITC/PI staining based flow cytometry analysis; assay type: functional, cell-based; conditions: dose 0-24 nmol/L
SGC-7901 [9] = assay: Induction of DNA damage in human SGC-7901 cells assessed as DNA fragmentation by measuring increase in comet tails by fluorescence microscope based comet assay; assay type: functional, cell-based; conditions: dose 0-30 nmol/L
SGC-7901 [10] = assay: Inhibition of cell migration in human SGC-7901 cells assessed as reduction in number of cells crossing membrane at 4 nmol/L measured after 48 hrs by transwell assay; assay type: functional, cell-based
MGC-803 [11] = assay: Antitumor activity against human MGC-803 cells xenografted in BALB/c nude mouse assessed as tumor growth inhibition at 25 mg/kg/day, ip administered every day for 21 days; assay type: functional, organism-based; conditions: time 21.0 day
[12] = Nephrotoxicity in BALB/c nude mouse xenografted with human MGC-803 cells assessed as effect on creatinine level at 25 mg/kg/day, ip administered every day for 21 days; assay type: toxicity, organism-based; conditions: in vivo, 504 h, time 21 day
MGC-803 [13] = assay: Antiproliferative activity against human MGC-803 cells assessed as inhibition of cell growth incubated for 48 hrs by MTT assay

Q: What does the source list for `COc1ccc(CN(C(=O)CSC(=S)N2CCN(c3ccc(N)cc3)CC2)c2cc(OC)c(OC)c(OC)c2)cc1O`?
A: IC50 (DU-145): 49.9 nM; IC50 (SMMC-7721): 27 nM; inhibition (Tubulin (Homo sapiens)): Dose-Dependent Effect; IC50 [1]: 2810 nM; inhibition [2]: Active; Activity (SGC-7901 [3]): 74%; Activity (MGC-803 [4]): Dose-Dependent Effect; Activity (SGC-7901 [5]): Active; Activity (MGC-803 [6]): Dose-Dependent Effect; Activity (SGC-7901 [7]): Active; Activity (MGC-803 [8]): Dose-Dependent Effect; Activity (SGC-7901 [9]): Dose-Dependent Effect; inhibition (SGC-7901 [10]): Active; Activity (MGC-803 [11]): Active; Activity [12]: Non-Toxic; Activity (MGC-803 [13]): Dose-Dependent Effect
